From patent US5814627A, “3, 5-disubstituted and 3, 4, 5-trisubstituted 2-isoxazolines and isoxazoles, process for their preparation and their use as pharmaceuticals” (Hoechst Aktienegesellschaft, priority 1994, dated 1998)
Like-named read-outs stand apart in the source and are kept apart here.

How the values were obtained:
[1] = tested on: TNFα release from mononuclear cells; assay: Test 4: cytokine release from LPS-stimulated mononuclear cells, TNFα; assay type: cell-based; settings: Homo sapiens, read-out: Test 4 residual activity (TNFα release), percent of control
Procedure: (§1) Test 4. Stimulation of the cytokine release
(§2) Isolation of mononuclear cells from human blood
(§3) 10 ml of human blood, stabilized with 1 ml of 3.8% sodium citrate solution, were diluted with 10 ml of PM16 (Serva, Heidelberg) and underlaid with 15 ml of Lymphoprep (Dr. Molter GmbH, Heidelberg). The samples were centrifuged, at room temperature for 40 minutes, at 400×g (1600 rpm, Minifuge 2, Heraeus, Osterode). The mononuclear cells are visible as a white ring at the Lymphoprep/plasma interface. This ring was carefully removed with a syringe, diluted with an equal volume of PM16, and centrifuged for 10 minutes at 400×g. The sediment was washed with approximately 10 ml of RPMI1640 (+300 mg/l L-glutamine, Gibco, Eggenstein) (Wallis, 1986). After the cells had been resuspended in approximately 1 ml of RPMI1640 (+300 mg/l L-glutamine+25 mM HEPES+100 μg/ml streptomycin+100 μg/ml penicillin), the cell density was determined using a Coulter Counter JT (Coulter Diagnostics) and adjusted to 5*10^6 /ml. Typically, the cells are composed of 90% lymphocytes and 10% monocytes.
(§4) 230 μl of mononuclear cells were incubated, at 37° C.; 5% CO2 for 20-22 hours (5 hours in the case of IL-6), with 10 μl of test substance (10 μM in DMSO/water, 1/10) and 10 μl of lipopolysaccharide (LPS; 500 μg dissolved in 1 ml of DMSO and diluted 1/10 with water prior to beginning the test; from Salmonella abortus equi, Sigma, Deisenhofen). The samples were cooled down to 0° C. in an ice bath and centrifuged in a Sigma centrifuge (2 minutes; 2000 rpm). Aliquots of the supernatant are measured with an ELISA (Biermann, Bad Nauheim). The abbreviation IL stands for interleukin and TNF for tumor necrosis factor alpha.
(§5) The values in the table show the concentration of the test substance which was employed in μM and, besides this, the residual activity measured in percent based on the control, which was set to be 100%. The interleukin is additionally indicated in test 4.

[2] = tested on: cyclooxygenase-dependent thrombocyte aggregation; assay: Test 5: Cyclooxygenase-dependent thrombocyte aggregation; assay type: cell-based, human; settings: Homo sapiens, arachidonic acid as inducer, read-out: Test 5 residual activity (cyclooxygenase-dependent thrombocyte aggregation), percent of control
Summary of the method: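 Citrated human platelet-rich plasma was preincubated 10 min at 37 °C with test substance diluted 1:30 in 50 mM Tris-HCl pH 8.0, 90 mM NaCl. Aggregation was triggered with arachidonic acid (5 mg/ml, 20 μl) under 800 rpm stirring in an aggregometer. Values are tested concentration (μM) and residual activity as % of control.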

[3] = tested on: leukotriene B4 synthesis in white blood cells; assay: Test 3: LTB4 formation by white blood cells; assay type: cell-based; settings: Homo sapiens, read-out: Test 3 residual activity (LTB4 formation), percent of control
Procedure: TEST 3. LTB4 formation by white blood cells
Isolation of white blood cells:
40 ml of human blood were mixed with 8 ml of 6% dextran solution (dextran, mw: 480,000 in PM16). After one hour at room temperature, the supernatant,which was composed of white blood cells, was removed, diluted with an equal volume of PM16, and centrifuged for 15 minutes at 300×g (1600 rpm). The sediment was next resuspended in approximately 5-6 ml of PM16 and, once the cell count had been determined in a Coulter Counter, adjusted to 10^7 cells/ml.
The test mixture comprised 0.24 ml of cell suspension, 0.03 ml of 20 mM CaCl2 /5 mM MgCl2 and 5 μl of test substance. Following 15 minutes of preincubation at 37° C., the reaction was started with 0.03 ml of A23187/glutathione (100 μg of A23187/ml; 15.4 μg of glutathione/ml). The incubation was terminated after 5 minutes at 37° C. by immediate cooling of the samples down to 0° C. After centrifuging for 2 minutes in an Eppendorff Centrifuge (0° C.), the supernatant was removed and examined chromatographically.
High pressure liquid chromatography (HPLC): the HPLC equipment comprises a Kratos pump (Spectro-flow 400), a cooled automatic BT 7041 sample injector (Biotronik) having a 75 μl sample loop, a Nucleosil C18 column (100*3 mm, 5 μm particles of Chrompack), a UV detector (Kratos) Spectroflow 757 (wavelength: 280 nm, measurement range: 0.1 AUFS, time constant: 0.5 s) and a Spectra Physics integrator (SP 4270). The eluent (725 ml of methanol, 275 ml of water and 0.1 ml of acetic acid) was supplied at a flow rate of 0.7 ml/minute and at a pressure of about 100 bar.
When doing this, the measurement range which has been set can be examined and altered if necessary. It is also vital to measure the test substances at the particular test concentration (e.g.: 10^-5 M) in PM16 before the cell incubation, since the test substances might conceal the LTB4 peak. If this is the case, a lower concentration must be selected.
as §5

[4] = tested on: IL-1 release from mononuclear cells; assay: Test 4: cytokine release from LPS-stimulated mononuclear cells, IL-1; assay type: cell-based; settings: Homo sapiens
Procedure: as §1, §2, §3, §4, §5

[5] = tested on: tumor cell line 20-10-5S (hybridoma cell line); assay: Test 8: Inhibition of tumor cell proliferation; assay type: cell-based; settings: 48 h + 16 h tritiated thymidine incorporation; 20-10-5S cells
Procedure: The tumor cell line 20-10-5S (hybridoma cell line, supplied by ATCC (American Type Culture Collection)), which produces an antibody against mouse T cells) was used for determining the antiproliferative property of test substances. The cells were cultured, at 37° C. and 5% C2, under serum-free conditions in CG medium (cell-growth medium=Iscove-ATL (+albumin+transferrin+lipids); from Vitromex, Vilshofen). Only cells which were in the logarithmic phase of growth were used for the test mixture. The test substances were pipetted in various concentrations (from 1 to 50 μM), together with 4×10^3 20-10-5S cells, into round-bottomedmicrotiter plates (total volume with medium, 200 μl). After an incubation time of 48 h (37° C. and 5% CO2), 25 μl of tritiated thymidine (=0.25 μCi/test mixture, specific activity, 23 Ci/mM) were added to the plates. During the subsequent 16 h, the radioactively labeled thymidine was incorporated into the DNA of the growing cells. The samples were filtered off with suction on glass fiber filters and the incorporated radioactivity was measured using a β counter (Beta Plate System 1205 from Wallac).

adjuvant/arthritis model = assay: Test 6: antiarthritic effect in the adjuvant/arthritis model; assay type: in vivo, rat (Wistar-Lewis); settings: Rattus norvegicus, po, 408 h, 50 mg/kg orally, daily for 17 days; rat; read-out: Test 6 Paw volume (% inhibition)
[6] = tested on: IL-1α release from mononuclear cells; assay: Test 4: cytokine release from LPS-stimulated mononuclear cells, IL-1α; assay type: cell-based; settings: Homo sapiens, read-out: Test 4 residual activity (IL-1α release), percent of control
Procedure: as §1, §2, §3
as §4, with “([…])” for “(10 μM in DMSO/water, 1/10)”
as §5

[7] = tested on: IL-1β release from mononuclear cells; assay: Test 4: cytokine release from LPS-stimulated mononuclear cells, IL-1β; assay type: cell-based; settings: Homo sapiens, read-out: Test 4 residual activity (IL-1β release), percent of control
Procedure: as §1, §2, §3, §4, §5

[8] = tested on: PAF-induced asthma attack; assay: Test 7: antiasthmatic effect, PAF-induced asthma attack; assay type: in vivo; settings: Cavia porcellus; i.d., 15 minutes before PAF; guinea pig
Procedure: Test 7: Testing for antiasthmatic effect
Anesthetized guinea pigs, which were cannulated in the jugular vein to allow injection of the PAF, were used for testing for antiasthmatic effect. The test preparations were also administered intravenously (i.v.), 5 min before PAF administration, into the blood stream through the same venous cannula, or else administered intraduodenally (i.d.), 15 minutes before the PAF, through an opening in the duodenum which had been installed and cannulated surgically. The bronchial width was recorded in an overflow pneumonogram before and after administering the preparation. Evaluation: ED50 in mg/kg i.d. as compared with the PAF-induced asthma attack.

[9] = tested on: polymorphonuclear leucocytes (PMNL); assay: Test 1: Release of proteolytic activity from human PMNL; assay type: cell-based; settings: Homo sapiens, PMNL, read-out: Test 1 residual activity (release of proteolytic activity), percent of control
Summary of the method: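 Human peripheral-blood PMNL (5·10^6 cells/ml in PBS with 7.5 mM glucose) preincubated 20 min at 37° C. with compound, then primed with cytochalasin B (5 μg/ml) and TNF (30 ng/ml), and stimulated with fMLP (10 nmol/l) for 60 min. Released protease in supernatant read with methoxysuccinyl-nitroanilide substrate at 405 nm over 0-60 min, pH 7.5.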

[10] = IL-1, read-out: Test 4 residual activity (IL-1 release), percent of control

Row | SMILES | activity at 10 µM [1] [%] | activity at 100 µM [2] [%] | activity at 10 µM [3] [%] | IC50 [5] [µM] | activity at 1 µM [6] [%] | activity at 100 µM [9] [%] | other results
1 | CC(C)(C)c1cc(C2=NOC(c3ccncc3)C2)cc(C(C)(C)C)c1O (stereo not shown) [Example 10] | 78 | 98 | 20 | – | – | – | activity at 1 µM [3]: 89%
2 | CC(C)(C)c1cc(-c2cc(CO)on2)cc(C(C)(C)C)c1O [Example 24] | – | – | – | < 5 | – | – | activity at 10 µM [4, 10]: 86%; activity at 10 µM [2]: 94%; inhibition in vivo at 50 mg/kg (adjuvant/arthritis model): 43%
3 | CC(C)(C)c1cc(-c2cc(CCO)on2)cc(C(C)(C)C)c1O [Example 25] | 82 | – | 29 | < 5 | – | – | activity at 10 µM [6]: 62%; activity at 10 µM ([7]; 10 μM): 93%; activity at 10 µM [2]: 86%; activity at 1 µM [3]: 85%; ED50 [8]: 3 to 10 mg/kg; inhibition in vivo at 50 mg/kg (adjuvant/arthritis model): 44%
4 | CC(C)(OCc1cc(-c2cc(C(C)(C)C)c(O)c(C(C)(C)C)c2)no1)C(=O)Nc1nnn[nH]1 [Example 38, 2-(3-(4-Hydroxy-3,5-di-tert-butylphenyl)isoxazol-5-ylmethoxy)-N-(1H-tetrazol-5-yl)isobutyramide] | – | 90 | – | – | 89 | – | activity at 1 µM [7]: 85%
5 | CC(C)(C)c1cc(-c2cc(CCC(=O)Nc3nnn[nH]3)on2)cc(C(C)(C)C)c1O [Example 46, 3-(3-(4-Hydroxy-3,5-di-tert-butylphenyl)isoxazol-5-yl)-N-(1H-tetrazol-5-yl)propionamide] | 79 | 90 | – | – | 77 | – | activity at 1 µM [7]: 85%
6 | CC(C)(C)c1cc(-c2cc(/C=C/C(=O)O)on2)cc(C(C)(C)C)c1O [Example 47, 3-(4-Hydroxy-3,5-di-tert-butylphenyl)isoxazol-5-ylacrylic acid] | 64 | – | – | 5 to 10 | 89 | 17 | activity at 10 µM [6]: 72%; ED50 [8]: 10 to 50 mg/kg; activity at 1 µM ([9]; 1 μM): 85%; activity at 10 µM [9]: 38%
7 | CC(C)(C)c1cc(C2CC(c3nccs3)=NO2)cc(C(C)(C)C)c1O (stereo not shown) [Example 61, 3-(2-Thiazolyl)-5-(4-hydroxy-3,5-di-tert-butylphenyl)-2-isoxazoline] | 68 | 94 | 3 | – | 94 | 80 | –
8 | CC(C)(C)c1cc(C2CC(CCC(=O)Nc3nnn[nH]3)=NO2)cc(C(C)(C)C)c1O (stereo not shown) [Example 64, 5-(4-Hydroxy-3,5-di-tert-butyl)phenyl-2-isoxazoline-3-propionic acid-N-(1H-tetrazol-5-yl)amide] | – | 97 | – | – | – | 72 | activity at 10 µM ([4]; IL-1 (second entry), read-out: Test 4 residual activity (IL-1 release, second IL-1 entry of Ex. 64), percent of control): 82%; activity at 1 µM ([4]; IL-1, 1 μM, read-out: Test 4 residual activity (IL-1 release), percent of control): 85%; activity at 10 µM [4, 10]: 68%; activity at 10 µM [9]: 96%
